Consider seven molecules from patent publication US9409966B2, “Glucagon-like peptide-1 derivatives and their pharmaceutical use” (priority 2007, dated 2016).

The target of one experiment is T1, human GLP-1 receptor (Homo sapiens, UniProt P43220).
T1 construct: expressed in transfected cells; host or cells: BHK467-12A (tk-ts13) baby hamster kidney cells; purified plasma membranes
In words: Stimulation of cAMP formation in a cell line expressing the cloned human GLP-1 receptor. The format is biochemical. The conditions noted are these: cAMP production, purified plasma membranes from BHK467-12A (tk-ts13), AlphaScreen cAMP Assay Kit; read-out: Potency [EC50/nM].

Experiment [1] has as its target human serum albumin (HSA) (Homo sapiens, UniProt P02768). In words: Albumin binding affinity, competition scintillation proximity assay (SPA).
Description: Streptavidin-SPA beads (GE Healthcare RPNQ0009) were incubated with biotinylated HSA for 5 hours. The beads were washed with buffer to remove unbound HSA. […] After 20 hours of gentle rocking at room temperature the plates were centrifuged and counted on a TopCounter.

*1 amine or outer side, *2 acyl side, *3 side chain or, on linkers, in order; H or OH if unused. Where a SMILES comes first, the peptide text is derived from it. Side-chain parts run from the residue outwards. [ ]: non-standard residue; d: D form. The star is where a group is joined. C18 diacid = O=C(O)CCCCCCCCCCCCCCCCC(=O)*; γGlu = O=C(O)[C@H](CCC(=O)[*:2])N[*:1]; Palmitoyl = CCCCCCCCCCCCCCCC(=O)*; AEEA = NCCOCCOCC(=O)O; Aib = CC(C)(N)C(=O)O

T1 sequence (P43220 24-463): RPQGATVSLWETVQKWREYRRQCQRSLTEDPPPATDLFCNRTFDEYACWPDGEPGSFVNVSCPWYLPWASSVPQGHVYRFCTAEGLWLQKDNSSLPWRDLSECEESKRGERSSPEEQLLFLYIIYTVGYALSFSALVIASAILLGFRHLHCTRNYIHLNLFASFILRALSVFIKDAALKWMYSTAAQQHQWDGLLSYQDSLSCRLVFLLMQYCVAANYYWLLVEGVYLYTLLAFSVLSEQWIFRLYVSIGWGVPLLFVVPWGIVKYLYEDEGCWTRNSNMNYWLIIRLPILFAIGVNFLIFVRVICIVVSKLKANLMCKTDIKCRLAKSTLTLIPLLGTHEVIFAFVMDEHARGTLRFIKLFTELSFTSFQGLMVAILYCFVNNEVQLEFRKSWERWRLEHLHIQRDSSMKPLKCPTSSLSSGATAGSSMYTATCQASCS
human serum albumin (HSA), sequence (P02768 25-609): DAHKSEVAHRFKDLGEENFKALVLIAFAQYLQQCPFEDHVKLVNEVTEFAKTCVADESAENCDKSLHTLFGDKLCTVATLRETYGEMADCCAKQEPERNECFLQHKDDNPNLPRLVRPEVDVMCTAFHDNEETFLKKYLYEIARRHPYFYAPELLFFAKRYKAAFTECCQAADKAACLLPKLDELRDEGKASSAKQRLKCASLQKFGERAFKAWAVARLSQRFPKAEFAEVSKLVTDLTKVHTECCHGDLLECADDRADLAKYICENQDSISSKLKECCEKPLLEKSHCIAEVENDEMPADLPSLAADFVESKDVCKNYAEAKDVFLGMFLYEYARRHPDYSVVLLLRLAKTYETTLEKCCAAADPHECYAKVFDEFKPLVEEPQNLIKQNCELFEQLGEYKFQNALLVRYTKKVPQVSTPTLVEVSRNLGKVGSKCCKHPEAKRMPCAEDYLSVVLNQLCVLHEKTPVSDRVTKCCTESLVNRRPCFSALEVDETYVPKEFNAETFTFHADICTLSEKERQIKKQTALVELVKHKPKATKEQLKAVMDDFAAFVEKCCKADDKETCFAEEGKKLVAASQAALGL
Description for human GLP-1 receptor: A stable transfected cell line has been prepared at NN A/S, Denmark, and a high expressing clone was selected for screening. The cells were grown at 5% CO2 in DMEM, 5% FCS, 1% Pen/Strep (Penicillin/Streptomycin) and 0.5 mg/ml of the selection marker G418.
Cells at approximate 80% confluence were washed 2× with PBS (Phosphate Buffered Saline) and harvested with Versene (aqueous solution of the tetrasodium salt of ethylenediaminetetraacetic acid), centrifuged 5 min at 1000 rpm and the supernatant removed. The additional steps were all made on ice. […] Suspension in Buffer 2, homogenization and centrifugation was repeated once and the membranes were resuspended in Buffer 2 and ready for further analysis or stored at −80° C.
The functional receptor assay was carried out by measuring the peptide induced cAMP production by The AlphaScreen Technology. […] The capture of cAMP is achieved by using a specific antibody conjugated to acceptor beads. Formed cAMP was counted and measured at a AlphaFusion Microplate Analyzer. The EC50 values were calculated using the Graph-Pad Prisme software (version 5).

For `CC[C@H](C)[C@H](NC(=O)[C@H](Cc1ccccc1)NC(=O)[C@H](CCC(=O)O)NC(=O)[C@H](CCCNC(=N)N)NC(=O)[C@H](C)NC(=O)[C@H](C)NC(=O)[C@H](CCC(N)=O)NC(=O)[C@H](CCC(=O)O)NC(=O)[C@H](CCC(=O)O)NC(=O)[C@H](CC(C)C)NC(=O)[C@H](Cc1ccc(O)cc1)NC(=O)[C@H](CO)NC(=O)[C@H](CO)NC(=O)[C@@H](NC(=O)[C@H](CC(=O)O)NC(=O)[C@H](CO)NC(=O)[C@@H](NC(=O)[C@H](Cc1ccccc1)NC(=O)[C@@H](NC(=O)CNC(=O)[C@H](CCC(=O)O)NC(=O)[C@H](C)NC(=O)CCc1c[nH]cn1)[C@@H](C)O)[C@@H](C)O)C(C)C)C(=O)N[C@@H](C)C(=O)N[C@@H](Cc1c[nH]c2ccccc12)C(=O)N[C@@H](CC(C)C)C(=O)N[C@H](C(=O)N[C@@H](CCCNC(=N)N)C(=O)NCC(=O)N[C@@H](CCCNC(=N)N)C(=O)N[C@@H](CCCCNC(=O)COCCOCCNC(=O)CC[C@H](NC(=O)CC[C@H](NC(=O)CCCCCCCCCCCNC(=O)CCCS(=O)(=O)NC(=O)CCCCCCCCCCCCCCCc1nnn[nH]1)C(=O)O)C(=O)O)C(N)=O)C(C)C` [Example 13, N-epsilon37-[2-(2-{2-[(S)-4-Carboxy-4-((S)-4-carboxy-4-{12-[4-(16-(1H-tetrazol-5-yl)hexadecanoylsulfamoyl)butyrylamino]dodecanoylamino}butyrylamino)butyrylamino]ethoxy}ethoxy)acetyl][DesaminoHis7,Glu22,Arg26,Arg34,Lys37]GLP-1-(7-37)amide], the EC50 on human GLP-1 receptor was 1.97 nM; in experiment [1] it was 100 to 150 nM.
Take `CCCCCCCCCCCCCCCC(=O)N[C@@H](CCC(=O)NCCOCCOCC(=O)NCCOCCOCC(=O)NCCCC[C@H](NC(=O)[C@H](CCCNC(=N)N)NC(=O)CNC(=O)[C@H](CCCNC(=N)N)NC(=O)[C@@H](NC(=O)[C@H](CC(C)C)NC(=O)[C@H](Cc1c[nH]c2ccccc12)NC(=O)[C@H](C)NC(=O)[C@@H](NC(=O)[C@H](Cc1ccccc1)NC(=O)[C@H](CCC(=O)O)NC(=O)[C@H](CCCNC(=N)N)NC(=O)[C@H](C)NC(=O)[C@H](C)NC(=O)[C@H](CCC(N)=O)NC(=O)[C@H](CCC(=O)O)NC(=O)[C@H](CCC(=O)O)NC(=O)[C@H](CC(C)C)NC(=O)[C@H](Cc1ccc(O)cc1)NC(=O)[C@H](CO)NC(=O)[C@H](CO)NC(=O)[C@@H](NC(=O)[C@H](CC(=O)O)NC(=O)[C@H](CO)NC(=O)[C@@H](NC(=O)[C@H](Cc1ccccc1)NC(=O)[C@@H](NC(=O)CNC(=O)[C@H](CCC(=O)O)NC(=O)[C@H](C)NC(=O)CCc1c[nH]cn1)[C@@H](C)O)[C@@H](C)O)C(C)C)[C@@H](C)CC)C(C)C)C(N)=O)C(=O)O` [Example 18, N-epsilon37-{2-(2-(2-(2-[2-(2-(4-(hexadecanoylamino)-4-carboxybutyrylamino)ethoxy)ethoxy]acetyl)ethoxy)ethoxy)acetyl)}-[desaminoHis7,Glu22, Arg26,Arg34,Lys 37] (GLP-1-(7-37)amide]: the EC50 was 0.02 nM at human GLP-1 receptor and > 2000 nM in experiment [1].
In the case of `CC[C@H](C)[C@H](NC(=O)[C@H](Cc1ccccc1)NC(=O)[C@H](CCC(=O)O)NC(=O)[C@H](CCCNC(=N)N)NC(=O)[C@H](C)NC(=O)[C@H](C)NC(=O)[C@H](CCC(N)=O)NC(=O)[C@H](CCC(=O)O)NC(=O)[C@H](CCC(=O)O)NC(=O)[C@H](CC(C)C)NC(=O)[C@H](Cc1ccc(O)cc1)NC(=O)[C@H](CO)NC(=O)[C@H](CO)NC(=O)[C@@H](NC(=O)[C@H](CC(=O)O)NC(=O)[C@H](CO)NC(=O)[C@@H](NC(=O)[C@H](Cc1ccccc1)NC(=O)[C@@H](NC(=O)CNC(=O)[C@H](CCC(=O)O)NC(=O)[C@H](C)NC(=O)CCc1c[nH]cn1)[C@@H](C)O)[C@@H](C)O)C(C)C)C(=O)N[C@@H](C)C(=O)N[C@@H](Cc1c[nH]c2ccccc12)C(=O)N[C@@H](CC(C)C)C(=O)N[C@H](C(=O)N[C@@H](CCCNC(=N)N)C(=O)NCC(=O)N[C@@H](CCCNC(=N)N)C(=O)N[C@@H](CCCCNC(=O)CCCS(=O)(=O)NC(=O)CCCCCCCCCCCCCCCc1nnn[nH]1)C(N)=O)C(C)C` [Example 21, N-epsilon37-[4-(16-(1H-Tetrazol-5-yl)hexadecanoylsulfamoyl)butyryl][DesaminoHis7,Glu22,Arg26,Arg34,Lys37]GLP-1-(7-37)amide], the values for the EC50 (at human GLP-1 receptor; in experiment [1]) were 1.27 nM and > 2000 nM, respectively.
The matching figures for `CC[C@H](C)[C@H](NC(=O)[C@H](Cc1ccccc1)NC(=O)[C@H](CCC(=O)O)NC(=O)[C@H](CCCNC(=N)N)NC(=O)[C@H](C)NC(=O)[C@H](C)NC(=O)[C@H](CCC(N)=O)NC(=O)[C@H](CCC(=O)O)NC(=O)[C@H](CCC(=O)O)NC(=O)[C@H](CC(C)C)NC(=O)[C@H](Cc1ccc(O)cc1)NC(=O)[C@H](CO)NC(=O)[C@H](CO)NC(=O)[C@@H](NC(=O)[C@H](CC(=O)O)NC(=O)[C@H](CO)NC(=O)[C@@H](NC(=O)[C@H](Cc1ccccc1)NC(=O)[C@@H](NC(=O)CNC(=O)[C@H](CCC(=O)O)NC(=O)[C@H](C)NC(=O)CCc1c[nH]cn1)[C@@H](C)O)[C@@H](C)O)C(C)C)C(=O)N[C@@H](C)C(=O)N[C@@H](Cc1c[nH]c2ccccc12)C(=O)N[C@@H](CC(C)C)C(=O)N[C@H](C(=O)N[C@@H](CCCNC(=N)N)C(=O)NCC(=O)N[C@@H](CCCNC(=N)N)C(=O)N[C@@H](CCCCNC(=O)COCCOCCNC(=O)COCCOCCNC(=O)CC[C@H](NC(=O)CCCCCCCCCCCCCCCCCCC(=O)O)C(=O)O)C(=O)O)C(C)C` [Example 22, N-epsilon37-[2-(2-{2-[2-(2-{2-[(S)-4-Carboxy-4-(19-carboxynonadecanoylamino)butyrylamino]ethoxy}ethoxy)acetylamino]ethoxy}ethoxy)acetyl][DesaminoHis7,Glu22,Arg26,Arg34,Lys37]GLP-1-(7-37)]: 1.35 nM and 400 to 800 nM.
Take `CC[C@H](C)[C@H](NC(=O)[C@H](Cc1ccccc1)NC(=O)[C@H](CCC(=O)O)NC(=O)[C@H](CCCNC(=N)N)NC(=O)[C@H](C)NC(=O)[C@H](C)NC(=O)[C@H](CCC(N)=O)NC(=O)[C@H](CCC(=O)O)NC(=O)[C@H](CCC(=O)O)NC(=O)[C@H](CC(C)C)NC(=O)[C@H](Cc1ccc(O)cc1)NC(=O)[C@H](CO)NC(=O)[C@H](CO)NC(=O)[C@@H](NC(=O)[C@H](CC(=O)O)NC(=O)[C@H](CO)NC(=O)[C@@H](NC(=O)[C@H](Cc1ccccc1)NC(=O)[C@@H](NC(=O)CNC(=O)[C@H](CCC(=O)O)NC(=O)C(C)(C)NC(=O)[C@@H](N)Cc1c[nH]cn1)[C@@H](C)O)[C@@H](C)O)C(C)C)C(=O)N[C@@H](C)C(=O)N[C@@H](CCCCNC(=O)COCCOCCNC(=O)COCCOCCNC(=O)CC[C@H](NC(=O)CCCCCCCCCCCCCCCCC(=O)O)C(=O)O)C(=O)N[C@@H](CC(C)C)C(=O)N[C@H](C(=O)N[C@@H](CCCCN)C(=O)NCC(=O)N[C@@H](CCCNC(=N)N)C(=O)NCC(=O)O)C(C)C` [Example 23, N-epsilon31-[2-(2-{2-[2-(2-{2-[4-Carboxy-4-(17-carboxy-heptadecanoylamino)butyrylamino]ethoxy}ethoxy)acetylamino]ethoxy}ethoxy)acetyl][Aib8,Glu22,Arg26,Lys31]GLP-1-(7-37)] (H-H[Aib]EGTFTSDVSSYLEEQAAREFIAK([AEEA-AEEA-γGlu-C18 diacid])LVKGRG-OH): the results for the EC50 (on human GLP-1 receptor; in experiment [1]) were 0.02 nM and 1500 to 2000 nM, respectively.
The matching figures for `CCCCCCCCCCCCCCCC(=O)N[C@@H](CCC(=O)NCCOCCOCC(=O)NCCOCCOCC(=O)NCCCC[C@H](NC(=O)[C@H](Cc1ccc(O)cc1)NC(=O)[C@H](CO)NC(=O)[C@H](CO)NC(=O)[C@@H](NC(=O)[C@H](CC(=O)O)NC(=O)[C@H](CO)NC(=O)[C@@H](NC(=O)[C@H](Cc1ccccc1)NC(=O)[C@@H](NC(=O)CNC(=O)[C@H](CCC(=O)O)NC(=O)C(C)(C)NC(=O)[C@@H](N)Cc1c[nH]cn1)[C@@H](C)O)[C@@H](C)O)C(C)C)C(=O)N[C@@H](CCC(=O)O)C(=O)N[C@@H](CCC(=O)O)C(=O)N[C@@H](CCC(N)=O)C(=O)N[C@@H](C)C(=O)N[C@@H](C)C(=O)N[C@@H](CCCNC(=N)N)C(=O)N[C@@H](CCC(=O)O)C(=O)N[C@@H](Cc1ccccc1)C(=O)N[C@H](C(=O)N[C@@H](CCC(=O)O)C(=O)N[C@@H](Cc1c[nH]c2ccccc12)C(=O)N[C@@H](CC(C)C)C(=O)N[C@H](C(=O)N[C@@H](CCCCN)C(=O)NCC(=O)N[C@@H](CCCNC(=N)N)C(=O)N1CCC[C@H]1C(N)=O)C(C)C)[C@@H](C)CC)C(=O)O` [Example 24, N-epsilon20-(2-{2-[2-(2-{2-[2-((S)-4-Carboxy-4-hexadecanoylamino-butyrylamino)ethoxy]ethoxy}acetylamino)ethoxy]ethoxy}-acetyl)[Aib8,Lys20,Glu22,Arg26,Glu30,Pro37]GLP-1-(7-37)amide] (H-H[Aib]EGTFTSDVSSYK([AEEA-AEEA-γGlu-Palmitoyl])EEQAAREFIEWLVKGRP-NH2): 0.01 nM and 1500 to 2000 nM.
The matching figures for `CC[C@H](C)[C@H](NC(=O)[C@H](Cc1ccccc1)NC(=O)[C@H](CCC(=O)O)NC(=O)[C@H](CCCNC(=N)N)NC(=O)[C@H](C)NC(=O)[C@H](C)NC(=O)[C@H](CCC(N)=O)NC(=O)[C@H](CCC(=O)O)NC(=O)[C@H](CCC(=O)O)NC(=O)[C@H](CC(C)C)NC(=O)[C@H](Cc1ccc(O)cc1)NC(=O)[C@H](CO)NC(=O)[C@H](CO)NC(=O)[C@@H](NC(=O)[C@H](CC(=O)O)NC(=O)[C@H](CO)NC(=O)[C@@H](NC(=O)[C@H](Cc1ccccc1)NC(=O)[C@@H](NC(=O)CNC(=O)[C@H](CCC(=O)O)NC(=O)[C@H](C)NC(=O)CCc1c[nH]cn1)[C@@H](C)O)[C@@H](C)O)C(C)C)C(=O)N[C@@H](C)C(=O)N[C@@H](Cc1c[nH]c2ccccc12)C(=O)N[C@@H](CC(C)C)C(=O)N[C@H](C(=O)N[C@@H](CCCNC(=N)N)C(=O)NCC(=O)N[C@@H](CCCNC(=N)N)C(=O)N[C@@H](CCCCNC(=O)COCCOCCNC(=O)CC[C@H](NC(=O)CC[C@H](NC(=O)CC[C@H](NC(=O)CCCCCCCCCCCCCCCCCCC(=O)O)C(=O)O)C(=O)O)C(=O)O)C(=O)O)C(C)C` [Example 25, N-epsilon37-(2-{2-[2-((S)-4-Carboxy-4-{(S)-4-carboxy-4-[(S)-4-carboxy-4-(19-carboxy-nonadecanoylamino)butyrylamino]butyrylamino}butyrylamino)ethoxy]ethoxy}acetyl)[DesaminoHis7,Glu22,Arg26,Arg34,Lys37]GLP-1-(7-37)]: 0.36 nM and 150 to 200 nM.
